# Legend:
# [1] = test system: T026OV ovarian cancer patient-derived organoid; test: 7-day organoid colony formation, ATP content (Cell Titer Glo 3D); format: cell-based, human; conditions: T026OV PDO, 7 days
# Excerpt: The FU-97 (Cat #JCRB1074) human gastric cancer cell line and the Kuramochi (Cat #JCRB0098) and RMUG-S(Cat #IFO50320) human ovarian cancer cell lines were obtained from the National Institutes of Biomedical Innovation, Health and Nutrition's Japanese Collection of Research Bioresources (JCRB) (Ibaraki City, Osaka, Japan). The HCC1419 (Cat #CRL-2326) and HCC1428 (Cat #CRL-2327) human breast cancer cell lines and the NCI-H1650 (Cat #CRL-5883) and NCI-H1792 (Cat #CRL-5895) non-small cell lung cancer cell lines were obtained from ATCC (Manassas, Virginia, USA). The human gastric cancer cell lines GCIY (Cat #RCB0555) and SNU601 (Cat #CSC-C9686L) were obtained from the Riken Bioresource Research Center (Tsukuba, Ibaraki, Japan) and Creative Bioarray (Shirley, NY, USA), respectively. The T025OV ovarian cancer organoid model was developed from a patient-derived xenograft (PDX) model, which was developed from primary serous ovarian carcinoma cells obtained from Discovery Life Sciences (Huntsville, AL, USA, SN #350627149). T026OV organoids were developed from PDX cells obtained from The Jackson Laboratory (Bar Harbor, ME, USA, Cat #TM00335).
# T025OV and T026OV PDOs were cultured in PDO complete media on a thin layer of growth-factor reduced Matrigel (Corning, Glendale, AZ, USA Cat #356231). […]
# Compound 1 IC50 values for inhibition of organoid colony formation were determined by measuring ATP levels after 7 days of treatment utilizing Cell Titer Glo 3D reagent (Promega, Madison, WI, USA Cat #G9683). […] Luminescence values (RLU) were read-out using a Clariostar plate reader (BMG Labtech, Cary, NC). […]
# [2] = test system: γH2AX in HCC1428 tumor tissue; test: γH2AX immunohistochemistry of HCC1428 xenograft tumor tissue (Study 2); format: in vivo, BALB/c nude mice; conditions: vehicle 2.4%
# Experimental: The mice in the 50 mg/kg BID group were dosed every day whereas the mice in the […] were dosed for the first 5 days of each 7-day cycle, such that the total weekly dose was the same between these two groups. At the end of the study, tumor tissue was collected for the vehicle, 50 mg/kg BID, and 30, 50 and 100 mg/kg QD dose groups and formalin-fixed and paraffin embedded (FFPE) for γH2AX immunohistochemistry. γH2AX expression in FFPE tumor tissue was evaluated by staining and was performed using immunohistochemistry and validated antibody conditions at Histowiz (Long Island City, NY, USA). The γH2AX IHC images were then quantified in-house using QuPath software. The total number of nuclei objects per tumor section based on hematoxylin counter-staining (blue) were segmented using a Stardist algorithm and the number of γH2AX positive DAB (3,3′ Diaminobenzidine) stained cells (brown) quantified using object classification with a pre-trained random forest model based on DAB staining parameters including intensity and standard deviation.
# % γH2AX positive=(#γH2AX positive nuclei/#total nuclei)*100
# Statistical analysis of the γH2AX staining was conducted using Ordinary one-way ANOVA with Dunnett's multiple comparisons test and differences considered significant at a calculated probability p≤0.05.
compound,measurement,setting,value
"[2H]C([2H])(c1cnn(C)c1)N1C(=O)c2cc(S(=O)(=O)NC3(C)CC3)ccc2N2C1=NC[C@H]2C [Compound 1, (R)-1-methyl-4-((1-methyl-1H-pyrazol-4-yl)methyl-d2)-N-(1-methylcyclopropyl)-5-oxo-1,2,4,5-tetrahydroimidazo[1,2-a]quinazoline-7-sulfonamide]",IC50,"[1]; Homo sapiens, 168 h, geometric mean, read-out: IC50 inhibition of ATP content",213 nM
same,IC90,"[1]; Homo sapiens, 168 h, geometric mean, read-out: IC90 inhibition of ATP content",567 nM
same,maximum reduction in cellular ATP content,[1],approximately 50%
same,% γH2AX positive cells in tumor tissue,[2]; 30 mg/kg QD,3.7% +/− 0.4
same,% γH2AX positive cells in tumor tissue,[2]; 50 mg/kg BID,6.8% +/− 0.4
same,% γH2AX positive cells in tumor tissue,[2]; 50 mg/kg QD,4.2% +/− 0.3
same,% γH2AX positive cells in tumor tissue,[2]; 100 mg/kg QD,5.9% +/− 0.5
